Values quoted from earlier work, collected in PMC10719327, “A dose-escalation study of HP501, a highly selective URAT1 inhibitor, in male Chinese patients with hyperuricemia” (Scientific Reports, 2023).

Assays:
[1] = test system: Japanese patients with hyperuricemia; parameters: method as in PMID 30334639
[2] = test system: patients; parameters: method as in PMID 29029210; conditions: lesinurad monotherapy

Row | SMILES | patients with serum creatinine elevated 1.5 times to baseline level [1] [%] | patients with increased serum creatinine [2]
1 | CC(C)(Sc1ccncc1-c1ccc(C#N)c2ccccc12)C(=O)O [Verinurad] | 17.1 | –
2 | O=C(O)CSc1nnc(Br)n1-c1ccc(C2CC2)c2ccccc12 [lesinurad] | – | About 24.30%
